# Data from patent US8691820B2, “CDK inhibitors” (Curis, Inc., priority 2008, dated 2014).
# Target: T1, CDK2/cyclinA (Homo sapiens, UniProt P24941)
# T1 construct: C-terminal 6His-tagged human full length cdk2 (MW=35 kDa); 6His (C); made in house; host or cells: Sf21 insect cells (baculovirus)
# Experiment: CDK2 kinase assay (33P-ATP, Histone H1 substrate)
# Assay type: biochemical
# Conditions: 1 μM ATP, 5 μM Histon H1, 2 hours at room temperature
# Excerpt: CDK2/cyclinA (Accession number for CDK2; EMBL M68520, for cyclin A; EMBL X51688): C-terminal 6His-tagged human full length cdk2 (MW=35 kDa), and N-terminal GST-tagged human full length cyclin A (MW=75 kDa) were expressed individually with baculovirus system in Sf21 insect cells. Recombinant cdk2 protein was purified with Ni2+/NTA agarose and then activated using CAK and repurified by Q Sepharose and Ni2+/NTA agarose. Recombinant cyclin A was purified using glutathione-agarose. They were then mixed in vitro to form protein complex. Recombinant protein complex was measured to be 67% in purity with SDS-PAGE and Coomassie blue staining. Specific activity of purified enzyme was measured to be 158 U/mg, where one unit of cdk2/cyclinA activity is defined as 1 nmol phosphate incorporated into 0.1 mg/ml histone H1 per minute at 30° C. with a final ATP concentration of […]. Enzyme was stored at a concentration of 0.1 mg/ml in 50 mM Tris/HCl pH7.5, 150 mM NaCl, 0.1 mM EGTA, 0.03% Brij-35, 270 mM sucrose, 1 mM benzamidine, 0.2 mM PMSF, 0.1% 2-mercaptoethanol. Frozen solution.
# Histon H1 (Substrate for CDK2): Histone H1 (Sigma cat#H4524), was purified as a lysine rich fraction from calf thymus with 93% purity (MW=21.5 kDa). Purified protein was stored at a concentration of 20 mg/ml=930 μM in distilled water.
# […] (0.5 nmol) and 5 μM Histon H1 were mixed in the reaction buffer (20 mM HEPES (pH 7.5), 10 mM MgCl2, 1 mM EGTA, 0.02% Brij 35, 0.02 mg/ml BSA, 0.1 mM Na3VO4, 2 mM DTT) with final concentration of 1 μM ATP and 1% DMSO. The reaction was incubated for 2 hours at room temperature and conversion rate of ATP is about 4.5%. An equal volume of 25% TCA was added to stop the reaction and precipitate the labeled peptides. Precipitated proteins were trapped onto glass fiber B filterplates and excess […] p33 ATP was washed off. The plates were allowed to air-dry prior to the addition of 30 uL/well of Packard Microscint 20. The amount of incorporated isotope was measured using a Perkin Elmer TopCount plate reader. Different concentrations of compounds were added to reaction to assess the activity of compounds to inhibit […]. IC50 was calculated using Prism software with sigmoidal dose-response curve fitting.
# The following TABLE B lists compounds representative of the invention and their activity in the CDK2 assay. In this assay, the following grading was used: I≧10 μM, 10 μM>II>1 μM, 1 μM>III>0.1 μM, and IV≦0.1 μM for IC50.
row,SMILES,IC50
1,CC(C)(C)c1cnc(CSc2cnc(NC(=O)Cc3ccc(OCCC(=O)Nc4ccccc4N)cc3)s2)o1 [Compound 33],≤ 100 nM
2,"CC(C)(C)c1cnc(CSc2cnc(NC(=O)Cc3ccc(OCCCCCC(=O)Nc4ccccc4N)cc3)s2)o1 [Compound 36, N-(2-aminophenyl)-6-(4-(2-(5-((5-tert-butyloxazol-2-yl)methylthio)thiazol-2-ylamino)-2-oxoethyl)phenoxy)hexanamide]",≤ 100 nM
3,"CC(C)(C)c1cnc(CSc2cnc(NC(=O)CCCCCCC(=O)NOCCO)s2)o1 [Compound 7, N^1-(5-((5-tert-butyloxazol-2-yl)methylthio)thiazol-2-yl)-N^8-(2-hydroxyethoxy)octanediamide]",≤ 100 nM
4,"CC(C)(C)c1cnc(CSc2cnc(NC(=O)CCCCCCC(=O)Nc3ccc(CCO)cc3)s2)o1 [Compound 8, N^1-(5-((5-tert-butyloxazol-2-yl)methylthio)thiazol-2-yl)-N^8-(4-(2-hydroxyethyl)phenyl)octanediamide]",≤ 100 nM
5,"CC(C)(C)c1cnc(CSc2cnc(NC(=O)CCCCCCC(=O)Nc3cn[nH]c3)s2)o1 [Compound 42, N^1-(5-((5-tert-butyloxazol-2-yl)methylthio)thiazol-2-yl)-N^8-(1H-pyrazol-4-yl)octanediamide]",≤ 100 nM
6,"CC(C)(C)c1cnc(CSc2cnc(NC(=O)Cc3ccc(OCCCC(=O)Nc4ccncc4)cc3)s2)o1 [Compound 62, 4-(4-(2-(5-((5-tert-butyloxazol-2-yl)methylthio)thiazol-2-ylamino)-2-oxoethyl)phenoxy)-N-(pyridin-4-yl)butanamide]",≤ 100 nM
7,"Cc1ccc(NC(=O)CCCCCCC(=O)Nc2ncc(SCc3ncc(C(C)(C)C)o3)s2)c(N)c1 [Compound 26, N^1-(2-amino-4-methylphenyl)-N^8-(5-((5-tert-butyloxazol-2-yl)methylthio)thiazol-2-yl)octanediamide]",≤ 100 nM
8,"CC(C)(C)c1cnc(CSc2cnc(NC(=O)CCCCCCC(=O)Nc3ccncc3)s2)o1 [Compound 30, N^1-(5-((5-tert-butyloxazol-2-yl)methylthio)thiazol-2-yl)-N^8-(pyridin-4-yl)octanediamide]",≤ 100 nM
9,"CC(C)(C)c1cnc(CSc2cnc(NC(=O)Cc3ccc(OCCCCC(=O)Nc4ccccc4N)cc3)s2)o1 [Compound 35, N-(2-aminophenyl)-5-(4-(2-(5-((5-tert-butyloxazol-2-yl)methylthio)thiazol-2-ylamino)-2-oxoethyl)phenoxy)pentanamide]",≤ 100 nM
10,"CC(=O)Nc1ccccc1NC(=O)CCCCCCC(=O)Nc1ncc(SCc2ncc(C(C)(C)C)o2)s1 [Compound 19, N^1-(2-acetamidophenyl)-N^8-(5-((5-tert-butyloxazol-2-yl)methylthio)thiazol-2-yl)octanediamide]",≤ 100 nM
11,"CC(C)(C)c1cnc(CSc2cnc(NC(=O)CCCCCCC(=O)Nc3ccccn3)s2)o1 [Compound 28, N^1-(5-((5-tert-butyloxazol-2-yl)methylthio)thiazol-2-yl)-N^8-(pyridin-2-yl)octanediamide]",≤ 100 nM
12,"CONC(=O)/C=C/c1ccc(C(=O)Nc2ncc(SCc3ncc(C(C)(C)C)o3)s2)cc1 [Compound 38, (E)-N-(5-((5-tert-butyloxazol-2-yl)methylthio)thiazol-2-yl)-4-(3-(methoxyamino)-3-oxoprop-1-enyl)benzamide]",≤ 100 nM
13,"CC(C)(C)c1cnc(CSc2cnc(NC(=O)CCCCCCC(=O)Nc3ccc(F)cc3N)s2)o1 [Compound 23, N^1-(2-amino-4-fluorophenyl)-N^8-(5-((5-tert-butyloxa-zol-2-yl)methylthio)thiazol-2-yl)octanediamide]",≤ 100 nM
14,"CC(C)(C)c1cnc(CSc2cnc(NC(=O)CC(=O)Nc3ccccc3N)s2)o1 [Compound 13, N1-(2-aminophenyl)-N3-(5-((5-tert-butyloxazol-2-yl)methylthio)thiazol-2-yl)malonamide]",≤ 100 nM
15,CC(C)(C)c1cnc(CSc2cnc(NC(=O)CCCCCCC(=O)Nc3c[nH]c4ccccc34)s2)o1 [Compound 50],≤ 100 nM
16,"CN(O)C(=O)CCCOc1ccc(CC(=O)Nc2ncc(SCc3ncc(C(C)(C)C)o3)s2)cc1 [Compound 32, 4-(4-(2-(5-((5-tert-butyloxazol-2-yl)methylthio)thiazol-2-ylamino)-2-oxoethyl)phenoxy)-N-hydroxy-N-methylbutanamide]",≤ 100 nM

# The remaining lines, values ahead:
row,IC50,SMILES
1,≤ 100 nM,"CC(C)(C)c1cnc(CSc2cnc(NC(=O)Nc3ccccc3N)s2)o1 [Compound 27, 1-(2-Aminophenyl)-3-(5-((5-tert-butyloxazol-2-yl)methyl-thio)thiazol-2-yl)urea]"
2,≤ 100 nM,"CC(C)(C)c1cnc(CSc2cnc(NC(=O)Cc3ccc(OCCCC(=O)Nc4ccccc4N)cc3)s2)o1 [Compound 34, N-(2-aminophenyl)-4-(4-(2-(5-((5-tert-butyloxazol-2-yl)methylthio)thiazol-2-ylamino)-2-oxoethyl)phenoxy)butanamide]"
3,≤ 100 nM,"CC(C)(C)c1cnc(CSc2cnc(NC(=O)CCCCCCC(=O)NOCc3ccccc3)s2)o1 [Compound 2, N^1-(benzyloxy)-N^8-(5-((5-tert-butyloxazol-2-yl)methylthio)thiazol-2-yl)octanediamide]"
4,≤ 100 nM,"CC(C)(C)c1cnc(CSc2cnc(NC(=O)Cc3ccc(OCCCC(=O)Nc4ccccc4)cc3)s2)o1 [Compound 61, 4-(4-(2-(5-((5-tert-butyloxazol-2-yl)methylthio)thiazol-2-ylamino)-2-oxoethyl)phenoxy)-N-phenylbutanamide]"
5,≤ 100 nM,"CC(C)(C)c1cnc(CSc2cnc(NC(=O)CCCCCCC(=O)Nc3ccc(O)cc3)s2)o1 [Compound 10, N^1-(5-((5-tert-butyloxazol-2-yl)methylthio)thiazol-2-yl)-N^8-(4-hydroxyphenyl)octanediamide]"
6,≤ 100 nM,"CONC(=O)CCCCCCC(=O)Nc1ncc(SCc2ncc(C(C)(C)C)o2)s1 [Compound 1, N^1-(5-((5-tert-butyloxazol-2-yl)methylthio)thiazol-2-yl)-N^8-methoxyoctanediamide]"
7,≤ 100 nM,CC(C)(C)c1cnc(CSc2cnc(NC(=O)CCCCCCC(=O)Nc3nc4ccccc4[nH]3)s2)o1 [Compound 47]
8,≤ 100 nM,"CC(C)(C)c1cnc(CSc2cnc(NC(=O)CCCCCCC(=O)Nc3cccnc3)s2)o1 [Compound 29, N^1-(5-((5-tert-butyloxazol-2-yl)methylthio)thiazol-2-yl)-N^8-(pyridin-3-yl)octanediamide]"
9,≤ 100 nM,"CC(Sc1cnc(NC(=O)CCCCCCC(=O)Nc2ccccc2N)s1)c1ncc(C(C)(C)C)o1 (stereo not shown) [Compound 20, N^1-(2-aminophenyl)-N^8-(5-(1-(5-tert-butyloxazol-2-yl)ethylthio)thiazol-2-yl)octanediamide]"
10,≤ 100 nM,"CC(C)(C)c1cnc(CSc2cnc(NC(=O)CCCC(=O)Nc3ccccc3N)s2)o1 [Compound 15, N1-(2-aminophenyl)-N5-(5-((5-tert-butyloxazol-2-yl)methylthio)thiazol-2-yl)glutaramide]"
11,≤ 100 nM,CC(C)(C)c1cnc(CSc2cnc(NC(=O)CCCCCCC(=O)Nc3n[nH]c4ccccc34)s2)o1 [Compound 41]
12,≤ 100 nM,"CC(C)(C)c1cnc(CSc2cnc(NC(=O)CCCCCCC(=O)n3ncc(-c4ccc(F)cc4)c3N)s2)o1 [Compound 44, 8-(5-amino-4-(4-fluorophenyl)-1H-pyrazol-1-yl)-N-(5-((5-tert-butyloxazol-2-yl)methylthio)thiazol-2-yl)-8-oxooctanamide]"
13,≤ 100 nM,CC(C)(C)c1cnc(CSc2cnc(NC(=O)CCCCCCC(=O)Nc3cc(-c4cccs4)n[nH]3)s2)o1 [Compound 52]
14,≤ 100 nM,"CC(C)(C)c1cnc(CSc2cnc(NC(=O)Cc3ccc(OCCCC(=O)Nc4cccnc4)cc3)s2)o1 [Compound 63, 4-(4-(2-(5-((5-tert-butyloxazol-2-yl)methylthio)thiazol-2-ylamino)-2-oxoethyl)phenoxy)-N-(pyridin-3-yl)butanamide]"
15,≤ 100 nM,"CC(C)(C)c1cnc(CSc2cnc(NC(=O)CC3Nc4ccccc4NC3=O)s2)o1 (stereo not shown) [Compound 46, N-(5-((5-tert-butyloxazol-2-yl)methylthio)thiazol-2-yl)-2-(3-oxo-1,2,3,4-tetrahydroquinoxalin-2-yl)acetamide]"
